{
  "source": "patent US8318681B2",
  "about": "“Utilization of peptides as active ingredients for slimming” (ISP Investments Inc., priority 2006, dated 2012)",
  "test_system": "pre-adipocyte cell line 3T3-L1",
  "assay": "Activity of the peptides on adipocytes: 3T3-L1 pre-adipocytes differentiated into mature adipocytes, Oil Red staining of lipid vacuoles, microscope observation",
  "assay_type": "cell-based",
  "conditions": "mature adipocytes from 3T3-L1, treated with solution containing the peptide",
  "method": "The number and the size of the lipid vacuoles present in the mature adipocytes are evaluated by microscope observation after specific staining with the “Oil Red” stain.\nThe pre-adipocyte cells 3T3-L1 are seeded in Labteks and maintained until 100% confluence in DMEM 10% SVF culture medium. The cells are treated with the peptide of sequence ID N° (5), representative of the family of peptides per the invention, placed in 1% solution à 1% starting with a solution of 50 ppm. Nontreated controls were prepared in parallel.\nOnce confluence is achieved, the cells are cultivated in the presence of differentiation inducers (IBMX, dexamethasone and insulin), so as to bring about the final differentiation into mature adipocytes. The differentiated adipocytes are further incubated for 3 hours with the peptide being tested in a concentration of 1%. Nontreated controls were prepared in parallel.\nThe adipocytes are then fixed for 10 minutes in a 4% formol and NaCl solution, after which the “Oil Red” stain solution (Sigma, O-0625) is applied for 15 minutes. The cells are then rinsed with warm water and mounted on slides, in hydrophilic medium (Aquatex). The observation is done under an optical microscope.",
  "note": "Ends that are not written are not given here.",
  "data": [
    {"substance": "GLYDNLE [sequence ID N^o (5)]", "values": [
      {"measurement": "morphology of mature adipocytes", "setting": "versus nontreated controls (voluminous spherical shape)", "result": "less rounded"},
      {"measurement": "content of intra-adipocyte lipid vesicles", "setting": "versus nontreated controls, Oil Red stain", "result": "clearly diminished"}
    ]}
  ]
}
